Results from publication PMC6312359, “Diisopropylphenyl-imidazole (DII): A new compound that exerts anthelmintic activity through novel molecular mechanisms” (PLoS Neglected Tropical Diseases, 2018).
≈ marks a conversion by molar mass, not a printed value. Where “and” joins values, the source holds several entries; their conditions need not be identical. Equal entries are not always repeated.

Tests used:
[1] = test system: C. elegans mutant strains; test: DII nematicidal effect on mutant strains; assay type: in vivo, Caenorhabditis elegans
Protocol: To evaluate DII nematicidal effects on mutant strains two different conditions were tested: i) ~40 L4s were exposed to DII (600 μM) in NGM plates and survival was scored at 4, 8, 24, 48 and 72 h, ii) ~40 L4s were exposed to 50 μM for 96 h and survival was subsequently scored. […] At least three independent experiments were analyzed.

C. elegans [2] = test: Lethality assays, dose-dependent, wild-type L4; assay type: in vivo, Caenorhabditis elegans; conditions: for LC50: Caenorhabditis elegans, L4 wild-type
Protocol: Dose-dependent lethality was quantified by exposing 40 L4s to DII (0–1000 μM) dissolved in solid medium for 8 and 24 h at 20°C. For survival to 96 h of DII exposure the temperature used was 13°C to avoid food depletion.

C. elegans [3] = test: Acute paralysis assays; assay type: in vivo, Caenorhabditis elegans; conditions: 10 min
Protocol: Acute paralysis assays were carried out in microtiter plates containing the drug dissolved in M9 buffer. […] Each drug concentration was tested in two wells (containing 30 animals each) within a single experiment. […] The experiment was independently repeated at least three times.

C. elegans [4] = test: Screening imidazole compounds: worm survival; assay type: in vivo, Caenorhabditis elegans; conditions: 150 μg/ml, 72 h, 20°C, young adult wild-type worms, liquid medium (S-Basal) with E. coli OP50
Protocol: 100–150 young adult wild-type worms were exposed to these compounds (150 μg/ml) in liquid medium (S-Basal) containing E. coli OP50. Micromolar concentrations for each compound are: 487 μM for 1, 428 μM for 2, 410 μM for 3, 375 μM for 4, 789 μM for 5, 735 μM for 6, 389 μM for 7, 319 μM for 8, 263 μM for 9, 806 μM for 10 and 657 μM for 11. Compounds were dissolved in water or DMSO according to their solubility. After 72 h, animal survival was analyzed. An animal was considered dead if it made no movement in response to gentle prodding with a worm pick. At least three independent experiments were analyzed.
We exposed 100–150 young adult worms to these compounds in liquid medium (S-Basal) containing the bacteria E. coli OP50 as a food source. After 72 h at 20°C, we analyzed worm survival (Fig 1B). […] The drug concentration chosen for this screening was 150 μg/ml, which is similar to those used in other screening studies. The corresponding molar concentration for each compound is detailed in Materials and Methods. Depending on their solubility properties, the compounds were dissolved either in water or DMSO (up to 0.75% final concentration).

[5] = test system: Escherichia coli ATCC 25922; test: Minimum inhibitory and bactericidal concentrations, microdilution; assay type: cell-based; conditions: 24 h at 37°C
Protocol: (§1) The strains used in this study were Escherichia coli ATCC 25922 and Staphylococcus aureus ATCC 25923, kindly provided by Dr. Ziegler (Bacillus Genetic Stock Center, The Ohio State University). Stocks were stored in Mueller Hinton Broth (MHB, Biokar Diagnostics, France) supplemented with glycerol 20% at -70°C. Before running each test, the strains were incubated for 48 h at 37°C in MHB. Finally, the bacterial strains were sub-cultured in MHB at 37°C for 24 h. The solutions of antimicrobial agents and imidazolium salts were prepared following the Clinical and Laboratory Standards Institute (CLSI) guidelines for determination of Minimum Inhibitory Concentrations by the microdilution method (CLSI 2009). […] Cultures were incubated as described above and adjusted to OD625nm ~ 0.08–0.13 by the direct colony suspension method in saline water and finally adjusted to 2–8 10^5 CFU/ml by diluting 1:150 in MHB before testing. A volume of 100 μl of each sample dilution in saline water was transferred to the microplate well. Finally, an equal volume of the inoculum was added. The MIC was the lowest concentration at which there was no visible growth when compared with controls after 24 h at 37°C. To assess the minimum bactericidal concentration (MBC), 20 μl aliquots were taken from the wells where no visible growth was observed, seeded on petri dishes and covered with MH agar (MHA) at 45°C. The compounds were considered bactericidal at the concentration at which no visible colony was observed on the plate after 24 h at 37°C. All conditions were run at least in duplicate. The results were obtained from at least 3 independent experiments.

[6] = test system: Staphylococcus aureus ATCC 25923; test: as above; assay type: cell-based; conditions: ATCC25923, 24 h at 37°C
Protocol: as §1

C. elegans [7] = test: Recovery assays; assay type: in vivo, Caenorhabditis elegans; conditions: 600 μM, 4 and 8 h of exposure, scored 24 h later
Protocol: To evaluate the recovery capacity of worms treated with DII, ~100 L4 worms were transferred to NGM plates containing DII (600 μM). After 4 and 8 h of exposure, those animals that survived were transferred to regular NGM plates. Worm viability was scored 24 h later. Results are expressed as the percentage of alive animals 24 h after being transferred to regular NGM plates. The experiment was independently repeated three times.

[8] = 600 μM, short exposure times, no difference after 48 h

Compound: CC(C)c1cccc(C(C)C)c1-n1ccnc1 [Compound 11]
- survival of unc-29 null mutant strain, long exposure ([1]; 50 μM, 96 h): resistant
- survival of lev-8 mutants vs wild-type ([1]; 600 μM, 4-72 h): as sensitive to DII as the wild-type
- survival of unc-63 mutants vs wild-type ([1]; 600 μM, 4-72 h): as sensitive to DII as the wild-type
- survival of lev-1 mutants vs wild-type [1, 8]: slightly resistant
- survival of unc-38 mutants vs wild-type [1, 8]: slightly resistant
- survival of unc-29(e1072)I null mutants vs wild-type ([1]; CB1072, 600 μM, 4-72 h, listed as DII): extremely resistant
- DII-mediated death in muscle unc-29 rescue strain OAR61 ([1]; myo-3::unc-29, unc-29(e1072)I, 600 μM): completely restores
- lethality (C. elegans [2]; 24 h of exposure, micromolar concentrations): 100%
- LC50 (C. elegans [2]; 8 h of exposure): 448.5 ± 1.1 µM
- LC50 (C. elegans [2]; 24 h of exposure): 342.3 ± 1 µM
- LC50 (C. elegans [2]; 96 h of exposure, 13°C): 23.4 ± 1.06 µM
- paralysis in CB407 unc-49(e407)III hypersensitive strain (C. elegans [3]; 100 μM): no paralyzing effects
- immobilized animals (C. elegans [3]; 800 μM (highest concentration tested)): 25%
- change of the dose-effect curve of levamisole by DII (C. elegans [3]; DII 100 and 200 μM, intact animals): no significant changes
- worm death (C. elegans [4]): 100%
- MIC E. coli ([5]; listed as DII (11)): 256 µg/mL (≈ 1120 µM)
- MBC ([5]; Escherichia coli, ATCC25922): > 256 µg/mL
- MIC ([5]; Escherichia coli, ATCC25922): 256 µg/mL and 1110 µM
- MBC ([6]; read-out: MBC S. aureus): > 256 µg/mL
- MIC ([6]; read-out: MIC S. aureus): 256 µg/mL (≈ 1120 µM)
- recovery of survivors after transfer to regular NGM plates (C. elegans [7]): reversible
